Source: the supplement of paper PMC11061612

Experiments:
[1] = system: JHH-1 (Hepatocellular Carcinoma); experiment: Bliss excess, mean over the matrix (fraction); higher = more synergy
How it was run: (§1)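 Cell lines grown in DMEM/F12 or RPMI with 10% FBS were plated in 1536-well plates and held 24 hours at 37°C, 5% CO2 before 72 hours of exposure to two-drug dose matrices, with DMSO typically at 0.2%. CellTiter-Glo 2.0 luminescence gave viability, which was converted to inhibition. Vehicle wells were set to 0 and blank wells to 1. Combination Emax is the second-highest inhibition in the matrix, and Bliss excess is the observed combination effect minus the expected EA + EB − EA·EB, where EA and EB are the single-agent effects.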

[2] = system: OVTOKO (Ovarian Carcinoma); experiment: as above
How it was run: as §1

[3] = system: AsPC-1 (Pancreatic Carcinoma); experiment: combination Emax (second highest fraction inhibited in the dose matrix, 72 h); higher = more inhibition; extreme values may be limits of the assay
How it was run: as §1

[4] = system: Becker (Low Grade Glioma); experiment: as above
How it was run: as §1

CHL-1 (Melanoma) = experiment: as above
How it was run: as §1

[5] = system: COLO-684 (Endometrial Carcinoma); experiment: as above
How it was run: as §1

[6] = system: Calu-6 (Non-Small Cell Lung Carcinoma); experiment: as above
How it was run: as §1

[7] = system: EB-3 (Burkitt's Lymphoma); experiment: as above
How it was run: as §1

[8] = system: FLO-1 (Esophageal Adenocarcinoma); experiment: as above
How it was run: as §1

[9] = system: HTC-C3 (Thyroid Gland Carcinoma); experiment: as above
How it was run: as §1

[10] = system: JHH-1 (Hepatocellular Carcinoma); experiment: as above
How it was run: as §1

KYM-1 (Rhabdomyosarcoma) = experiment: as above
How it was run: as §1

[11] = system: KYSE-70 (Esophageal Squamous Cell Carcinoma); experiment: as above
How it was run: as §1

[12] = system: NCI-H1155 (Non-Small Cell Lung Carcinoma); experiment: as above
How it was run: as §1

[13] = system: NCI-H1563 (Lung Adenocarcinoma); experiment: as above
How it was run: as §1

[14] = system: NCI-H1623 (Lung Adenocarcinoma); experiment: as above
How it was run: as §1

[15] = system: NCI-H1755 (Lung Adenocarcinoma); experiment: as above
How it was run: as §1

[16] = system: OCI-AML5 (Acute Myeloid Leukemia); experiment: as above
How it was run: as §1

[17] = system: RMG-I (Ovarian Carcinoma); experiment: as above
How it was run: as §1

[18] = system: RPMI-8866 (Chronic Myelogenous Leukemia); experiment: as above
How it was run: as §1
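Wherever Bliss excess, mean over the matrix is given: after 72 h of two-drug dosing.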

SMILES | Bliss excess [1] | Bliss excess [2] | combination Emax [3] | combination Emax [4] | combination Emax (CHL-1 (Melanoma)) | combination Emax [5] | combination Emax [6] | combination Emax [7] | combination Emax [8] | combination Emax [9] | combination Emax [10] | combination Emax (KYM-1 (Rhabdomyosarcoma)) | combination Emax [11] | combination Emax [12] | combination Emax [13] | combination Emax [14] | combination Emax [15] | combination Emax [16] | combination Emax [17] | combination Emax [18]
C=CCn1c(=O)c2cnc(Nc3ccc(N4CCN(C)CC4)cc3)nc2n1-c1cccc(C(C)(C)O)n1 [AZD1775] + O=C(c1cc(Cc2n[nH]c(=O)c3ccccc23)ccc1F)N1CCN(C(=O)C2CC2)CC1 [Olaparib] (first compound max 1 µM, partner max 10 µM) | -0.0244 | -0.0514 | 0.29 | 0.216 | 0.528 | 0.625 | 0.708 | 0.73 | 0.878 | 0.365 | 0.328 | 0.563 | 0.655 | 0.454 | 0.215 | 0.605 | 0.832 | 0.953 | 0.365 | 0.977
CCN(CCO)CCCOc1ccc2c(Nc3cc(CC(=O)Nc4cccc(F)c4)[nH]n3)ncnc2c1 [AZD2811] + C=CCn1c(=O)c2cnc(Nc3ccc(N4CCN(C)CC4)cc3)nc2n1-c1cccc(C(C)(C)O)n1 [AZD1775] (first compound max 1 µM, partner max 1 µM) | -0.0609 | -0.0353 | 0.293 | 0.167 | 0.658 | 0.649 | 0.727 | 0.62 | 0.769 | 0.3 | 0.335 | 0.401 | 0.549 | 0.45 | 0.245 | 0.297 | 0.76 | 0.978 | 0.256 | 1
CCN(CCO)CCCOc1ccc2c(Nc3cc(CC(=O)Nc4cccc(F)c4)[nH]n3)ncnc2c1 [AZD2811] + C[C@@H]1COCCN1C2=NC(=NC(=C2)C3(CC3)[S@](=N)(=O)C)C4=C5C=CNC5=NC=C4 [AZD6738] (first compound max 1 µM, 7x7, partner max 10 µM) | -0.0574 | -0.0305 | 0.42 | 0.586 | 0.805 | 0.748 | 0.767 | 0.644 | 0.6 | 0.858 | 0.504 | 0.762 | 0.313 | 0.787 | 0.206 | 0.6 | 0.788 | 0.983 | 0.497 | 0.955
CCN(CCO)CCCOc1ccc2c(Nc3cc(CC(=O)Nc4cccc(F)c4)[nH]n3)ncnc2c1 [AZD2811] + O=C(c1cc(Cc2n[nH]c(=O)c3ccccc23)ccc1F)N1CCN(C(=O)C2CC2)CC1 [Olaparib] (first compound max 1 µM, 7x7, partner max 10 µM) | 0.0078 | -0.012 | 0.18 | 0.12 | 0.24 | 0.291 | 0.239 | 0.282 | 0.377 | 0.248 | 0.161 | 0.402 | 0.203 | 0.443 | 0.158 | 0.442 | 0.576 | 0.966 | 0.231 | 0.69
Cc1c2c(nn1C)CSCc1cc(n(C)n1)CSc1cc(c3ccccc3c1)OCCCc1c(C(=O)O)n(C)c3c-2c(Cl)ccc13 [AZD5991] + CN(C)CCCOc1ccc(-c2ccc3ncc4c(c3c2)n(C2CCOCC2)c(=O)n4C)cn1 [AZD0156] (first compound max 1 µM, 7x7, partner max 1 µM) | 0.0048 | 0.0042 | 0.24 | 0.141 |  | 0.332 | 0.282 | 0.371 | 0.36 | 0.179 | 0.48 | 0.268 | 0.156 | 0.626 | 0.668 | 0.891 | 0.361 | 1 | 0.293 | 0.668
CS(=O)(=O)CCNCc1ccc(-c2ccc3ncnc(Nc4ccc(OCc5cccc(F)c5)c(Cl)c4)c3c2)o1 [Lapatinib] + NC1(c2ccc(-c3nc4ccn5c(=O)[nH]nc5c4cc3-c3ccccc3)cc2)CCC1 [MK-2206] (first compound max 10 µM, 7x7, partner max 10 µM) |  |  |  | 0.808 | 0.5 | 0.893 |  | 0.937 | 0.793 |  |  | 0.945 | 0.613 |  |  |  | 0.88 |  | 0.679 | 
CCc1c2c(nc3ccc(O)cc13)-c1cc3c(c(=O)n1C2)COC(=O)[C@]3(O)CC [SN-38] + O=C(c1cc(Cc2n[nH]c(=O)c3ccccc23)ccc1F)N1CCN(C(=O)C2CC2)CC1 [Olaparib] (first compound max 0.3 µM, 7x7, partner max 10 µM) | 0.0041 |  | 0.156 | 0.818 | 0.508 | 0.514 | 0.776 | 0.682 | 0.479 | 0.686 | 0.539 | 0.875 | 0.304 | 0.968 |  |  | 0.616 |  | 0.421 | 0.994
C[C@@H](c1ccc2nccn2c1)n1nnc2ncc(-c3cnn(C)c3)nc21 [Savolitinib] + CN(CC[C@H](CSC1=CC=CC=C1)NC2=C(C=C(C=C2)S(=O)(=O)NC(=O)C3=CC=C(C=C3)N4CCC(CC4)[C@H](C5=CC=CC=C5C6=CC=C(C=C6)Cl)O)S(=O)(=O)C(F)(F)F)CCO [AZD4320] (first compound max 1 µM, 7x7, partner max 1 µM) | -0.0341 | -0.0718 | 0.572 |  |  |  | 0.414 |  |  | 0.282 | 0.356 |  |  | 0.582 | 0.213 | 0.255 |  | 1 |  | 0.366
